{
  "source": "BindingDB's records for doi:10.1124/dmd.112.048355",
  "about": "(Glaxosmithkline, 2013)",
  "target": "Methionine aminopeptidase 2 (Homo sapiens) (UniProt P50579)",
  "sequence (P50579 whole entry, looked up)": "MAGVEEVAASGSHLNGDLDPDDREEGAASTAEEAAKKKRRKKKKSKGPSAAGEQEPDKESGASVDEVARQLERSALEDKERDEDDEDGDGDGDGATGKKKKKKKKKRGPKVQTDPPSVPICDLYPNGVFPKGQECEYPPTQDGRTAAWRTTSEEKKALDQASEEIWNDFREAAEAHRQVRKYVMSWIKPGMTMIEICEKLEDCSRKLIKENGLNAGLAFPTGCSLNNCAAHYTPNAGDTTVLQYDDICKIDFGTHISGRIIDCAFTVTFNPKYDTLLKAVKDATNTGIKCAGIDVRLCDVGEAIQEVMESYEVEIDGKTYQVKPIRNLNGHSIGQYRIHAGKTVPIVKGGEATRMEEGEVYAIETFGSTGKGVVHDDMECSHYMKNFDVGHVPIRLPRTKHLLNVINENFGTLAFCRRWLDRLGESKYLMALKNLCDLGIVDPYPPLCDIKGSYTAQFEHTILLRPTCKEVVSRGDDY",
  "test": "Inhibition of MetAP2 activity in HUVEC assessed as inhibition of cell proliferation by MTT assay",
  "data": [
    {"compound": "CO[C@@H]1[C@H](OC(=O)N[C@@H](C(N)=O)C(C)C)CC[C@]2(CO2)[C@H]1[C@@]1(C)O[C@@H]1CC=C(C)C", "values": [
      {"measurement": "EC50", "result": 0.095, "unit": "nM"}
    ]},
    {"compound": "CO[C@@H]1[C@H](OC(=O)N[C@@H](C(N)=O)C(C)C)CC[C@]2(CO2)[C@H]1[C@@]1(C)O[C@@H]1C[C@@H]1OC1(C)C", "values": [
      {"measurement": "EC50", "result": 6.5, "unit": "nM"}
    ]},
    {"compound": "CO[C@@H]1[C@H](OC(=O)N[C@@H](C(N)=O)C(C)C)CC[C@]2(CO2)[C@H]1[C@@]1(C)O[C@@H]1C/C=C(\\C)CO", "values": [
      {"measurement": "EC50", "result": 7.1, "unit": "nM"}
    ]},
    {"compound": "CO[C@@H]1[C@H](OC(=O)N[C@@H](C(N)=O)C(C)C)CC[C@]2(CO2)[C@H]1[C@@]1(C)O[C@@H]1C[C@H]1OC1(C)C", "values": [
      {"measurement": "EC50", "result": 1.3, "unit": "nM"}
    ]},
    {"compound": "CO[C@@H]1[C@H](OC(=O)N[C@@H](C(N)=O)C(C)(C)O)CC[C@]2(CO2)[C@H]1[C@@]1(C)O[C@@H]1C[C@@H]1OC1(C)C", "values": [
      {"measurement": "EC50", "result": 12, "unit": "nM"}
    ]},
    {"compound": "CO[C@@H]1[C@H](OC(=O)N[C@@H](C(N)=O)C(C)(C)O)CC[C@]2(CO2)[C@H]1[C@@]1(C)O[C@@H]1C[C@H]1OC1(C)C", "values": [
      {"measurement": "EC50", "result": 8.8, "unit": "nM"}
    ]},
    {"compound": "CO[C@@H]1[C@H](OC(=O)N[C@@H](C(N)=O)C(C)(C)O)CC[C@]2(CO2)[C@H]1[C@@]1(C)O[C@@H]1CC=C(C)C", "values": [
      {"measurement": "EC50", "result": 0.3, "unit": "nM"}
    ]}
  ]
}
